Experiments:
[1] = tested on: Factor VII; experiment: In vivo mouse Factor VII silencing (siRNA in liposome formulations with the cationic lipid); set-up: species or system C57BL/6 mice; conditions: C57BL6 mice; for ability to knockdown Factor VII in mouse plasma (FIGS. 1 and 2): 0.3 mg/kg, compared to controls (MC3, NC1, ATX-547, ATX-003); for Factor VII knockdown in mouse plasma (FIGS. 3 and 4): second series with MC3, NC1, ATX-547, ATX-004, ATX-006, ATX-010, ATX-001
Description: Using a liver-directed in vivo screen of the liposome libraries, a series of compounds were tested that facilitate high levels of siRNA mediated gene silencing in hepatocytes, the cells comprising the liver parenchyma. Factor VII, a blood clotting factor, is a suitable target gene for assaying functional siRNA delivery to liver. Because this factor is produced specifically in hepatocytes, gene silencing indicates successful delivery to parenchyma, as opposed to delivery to the cells of the reticulo-endothelial system (e.g., Kupffer cells). Furthermore, Factor VII is a secreted protein that can be readily measured in serum, obviating the need to euthanize animals. Silencing at the mRNA level can be readily determined by measuring levels of protein. This is because the protein's short half-life (2-5 hour). C57BL/6 mice (Charles River Labs) received either saline or siRNA in liposome formulations via tail vein injection at a volume of 0.006 ml/g. At 48 h after administration, animals were anesthetized by isofluorane inhalation and blood was collected into serum separator tubes by retroorbital bleed. Serum levels of Factor VII protein were determined in samples using a chromogenic assay (Biophen FVII, Aniara Corporation) according to manufacturers' protocols. A standard curve was generated using serum collected from saline-treated animals.
Compositions with siRNA directed to […] were formulated with ATX-001, ATX-002, ATX-003, and ATX-547, and comparator samples NC1 and MC3 (Alnylam). These were injected into animals at 0.3 mg/kg and at 1 mg/kg. The siRNA encapsulated by MC3 (0.3 mg/kg), NC1 (0.3 mg/kg), ATX-547 (0.3 mg/kg), ATX-001 (0.3 and 1.0 mg/kg), ATX-002 (0.3 and 1.0 mg/kg), and ATX-003 (0.3 and 1.0 mg/kg) was measured for the ability to knockdown Factor VII in mouse plasma following administration of the siRNA formulation to C57BL6 mice.
The siRNA encapsulated MC3 (0.3 and 1.5 mg/kg), NC1 (0.3 mg/kg), ATX-547 (0.1 and 0.3 mg/kg), ATX-004 (0.3), ATX-006 (0.3 and 1.0 mg/kg), ATX-010 (0.3 mg/kg), and ATX-001 (0.3 and 1.5 mg/kg), was measured for Factor VII knockdown in mouse plasma following administration of the siRNA formulation to C57BL6 mice. […] The knockdown activity of the exemplary compounds is shown for 0.3 mg/kg or at 0.05 mg/kg for ATX-018, ATX-019, and ATX-020 (Table 1).

[2] = pKa of the cationic lipid (Table 1); assay type: physicochemical

| Compound | pKa [2] | ability to knockdown Factor VII in mouse plasma (FIGS. 1 and 2) [1] | Factor VII knockdown in mouse plasma (FIGS. 3 and 4) [1] |
| --- | --- | --- | --- |
| CCCCCC/C=C\COC(=O)CCCCCCCN(CCCCCCCC(=O)OC/C=C\CCCCCC)C(=O)CSCCN(C)C [ATX-001] | 8.9 | most effective | most effective |
| CCCCCC/C=C\COC(=O)CCCCCCCN(CCCCCCCC(=O)OC/C=C\CCCCCC)C(=O)SCCN(C)C [ATX-002] | 8.7 | most effective |  |
| CCCCCC/C=C\COC(=O)CCCCCCCN(CCCCCCCC(=O)OC/C=C\CCCCCC)C(=O)SCCCN(C)C [ATX-003] | 9.3 |  |  |
| CCCCCC/C=C\COC(=O)CCCCCCCN(CCCCCCCC(=O)OC/C=C\CCCCCC)C(=O)CSCCCN(C)C [ATX-004] | 9.4 |  |  |
| CCCCCC/C=C\COC(=O)CCCCCCCN(CCCCCCCC(=O)OC/C=C\CCCCCC)C(=O)CSCCN(C)CC [ATX-005] | 9 |  |  |
| CCCCCC/C=C\COC(=O)CCCCCCCN(CCCCCCCC(=O)OC/C=C\CCCCCC)C(=O)CSCCN(CC)CC [ATX-006] | 9.8 |  |  |
| CCCCCC/C=C\COC(=O)CCCCCCCN(CCCCCCCC(=O)OC/C=C\CCCCCC)C(=O)CSCCCN(C)CC [ATX-007] | 9.5 |  |  |
| CCCCCC/C=C\COC(=O)CCCCCCCN(CCCCCCCC(=O)OC/C=C\CCCCCC)C(=O)CSCCCN(CC)CC [ATX-008] | 10.3 |  |  |

The next lines start with results.

| pKa [2] | Compound | ability to knockdown Factor VII in mouse plasma (FIGS. 1 and 2) [1] | Factor VII knockdown in mouse plasma (FIGS. 3 and 4) [1] |
| --- | --- | --- | --- |
| 8.8 | CCCCCC/C=C\COC(=O)CCCCCCCN(CCCCCCCC(=O)OC/C=C\CCCCCC)C(=O)SCCN(C)CC [ATX-009] |  |  |
| 9.6 | CCCCCC/C=C\COC(=O)CCCCCCCN(CCCCCCCC(=O)OC/C=C\CCCCCC)C(=O)SCCN(CC)CC [ATX-010] |  | most effective |
| 9.4 | CCCCCC/C=C\COC(=O)CCCCCCCN(CCCCCCCC(=O)OC/C=C\CCCCCC)C(=O)SCCCN(C)CC [ATX-011] |  |  |
| 10.2 | CCCCCC/C=C\COC(=O)CCCCCCCN(CCCCCCCC(=O)OC/C=C\CCCCCC)C(=O)SCCCN(CC)CC [ATX-012] |  |  |

From patent US10399937B2, “Ionizable cationic lipid for RNA delivery” (Arcturus Therapeutics, Inc., priority 2013, dated 2019)
